Assay results from publication PMC4007590, “Development of an oligonucleotide-based fluorescence assay for the identification of tyrosyl-DNA phosphodiesterase 1 (TDP1) inhibitors” (Analytical Biochemistry, 2014).
Read-outs that look alike come from different tables or passages of the source.

Target: T1, tyrosyl-DNA phosphodiesterase 1 (TDP1) (Homo sapiens, UniProt Q9NUW8)
T1 construct: catalytic domain of human TDP1
Test: Gyrasol fluorescence quench assay, FITC-phosphotyrosyl […]mer oligonucleotide substrate, recombinant TDP1
Type: biochemical

T1 sequence (Q9NUW8 149-608 limits assumed): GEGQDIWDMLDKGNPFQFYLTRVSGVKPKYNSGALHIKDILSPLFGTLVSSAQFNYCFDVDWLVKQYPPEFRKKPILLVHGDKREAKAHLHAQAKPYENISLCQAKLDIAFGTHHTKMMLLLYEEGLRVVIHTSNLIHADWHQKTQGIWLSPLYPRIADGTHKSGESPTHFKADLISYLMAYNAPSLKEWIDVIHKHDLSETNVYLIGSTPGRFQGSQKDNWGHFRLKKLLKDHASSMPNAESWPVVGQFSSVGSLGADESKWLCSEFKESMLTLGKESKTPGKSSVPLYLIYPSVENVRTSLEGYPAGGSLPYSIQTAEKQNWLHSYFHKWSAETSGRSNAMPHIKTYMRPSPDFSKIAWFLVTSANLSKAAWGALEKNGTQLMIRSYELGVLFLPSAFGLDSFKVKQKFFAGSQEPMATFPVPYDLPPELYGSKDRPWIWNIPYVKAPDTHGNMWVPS

| SMILES | IC50 (read-out: IC50) | IC50 |
| --- | --- | --- |
| Cc1ccc(C(=O)Nc2ccc(S(=O)(=O)O)c3cc(S(=O)(=O)O)cc(S(=O)(=O)O)c23)cc1NC(=O)c1cccc(NC(=O)Nc2cccc(C(=O)Nc3cc(C(=O)Nc4ccc(S(=O)(=O)O)c5cc(S(=O)(=O)O)cc(S(=O)(=O)O)c45)ccc3C)c2)c1 [Suramin] | 5 µM | – |
| [O]=[V]([OH])([OH])[OH] [sodium orthovanadate] | – | 4 µM |
